# Values of other authors as cited in patent publication US20030158237A1, “Combination of antioxidant substances for the treatment of alzheimer's disease” (priority 2001, published 2003).
# What was measured:
# isolated LDL = details: 0.025-0.3 mg/l added to isolated LDL; dose dependent
# [1] = system: NF-kappa B binding induced by ceramide; details: in comparison with N-acetylcystein, acetate d-alpha-tocopherol, ascorbic acid
# [2] = system: DNA fragmentation induced by low-dose t-BuOOH; details: mouse
# 341 patients = details: single-agent therapy, 2 years; vitamin E 2,000 UI/daily, selegiline 10 mg daily
# [3] = system: hippocampal cell cultures
compound,measurement,setting,value
"O=C(O)C=Cc1ccc(O)c(O)c1 [caffeic acid, 3-(3,4-Dihydroxyphenyl)-2-propenoic acid]",time of oxidation of LDL,isolated LDL,prolonged
same,activity of the NF-kappa B binding induced by ceramide,[1],inhibits significantly
same,apoptotic response induced by ceramide,[1],inhibits significantly
NC(=O)c1cccnc1 [nicotinamide],DNA fragmentation,[2],able to prevent DNA fragmentation
C#CCN(C)[C@H](C)Cc1ccccc1 [selegiline],retarded cognitive deterioration,341 patients,25%
vitamin E,retarded cognitive deterioration,341 patients,25%
same,adverse effects with high doses,3000 IU,"indigestion, gastric distress, diarrhea and severe cramps"
same,adverse symptoms (uncommon),in vivo,"cataract, haemorrhage risk in patient with vitamin K deficiency, and syncope"
same,beta A4 induced cell death,[3],reduces beta A4 induced cell death
